Reference: ChEMBL document CHEMBL4507271, “Data for DCP probe BAY-707” (2021)

What was measured:
[1] = biological target: Alpha-2B adrenergic receptor (Homo sapiens) (UniProt P18089); details: Compound concentration 10.0 uM
[2] = biological target: Beta-2 adrenergic receptor (Homo sapiens) (UniProt P07550); details: Compound concentration 10.0 uM
[3] = biological target: 5-hydroxytryptamine receptor 6 (Homo sapiens) (UniProt P50406); details: Compound concentration 10.0 uM
[4] = biological target: Muscarinic acetylcholine receptor M1 (Homo sapiens) (UniProt P11229); details: Compound concentration 10.0 uM
[5] = biological target: GABA-A receptor; anion channel; assay: GPCRScan assay: inhibition of GABAA/BZP; type: protein-complex assay, Rattus norvegicus; parameters: radioligand conc. used [nm] 0.6 – 4.0, parental cells brain tissue
[6] = biological target: D(4) dopamine receptor (Homo sapiens) (UniProt P21917); details: Compound concentration 10.0 uM
[7] = biological target: Histamine H4 receptor (Homo sapiens) (UniProt Q9H3N8); details: Compound concentration 10.0 uM
Histamine H4 receptor (Homo sapiens), sequence (Q9H3N8 whole entry): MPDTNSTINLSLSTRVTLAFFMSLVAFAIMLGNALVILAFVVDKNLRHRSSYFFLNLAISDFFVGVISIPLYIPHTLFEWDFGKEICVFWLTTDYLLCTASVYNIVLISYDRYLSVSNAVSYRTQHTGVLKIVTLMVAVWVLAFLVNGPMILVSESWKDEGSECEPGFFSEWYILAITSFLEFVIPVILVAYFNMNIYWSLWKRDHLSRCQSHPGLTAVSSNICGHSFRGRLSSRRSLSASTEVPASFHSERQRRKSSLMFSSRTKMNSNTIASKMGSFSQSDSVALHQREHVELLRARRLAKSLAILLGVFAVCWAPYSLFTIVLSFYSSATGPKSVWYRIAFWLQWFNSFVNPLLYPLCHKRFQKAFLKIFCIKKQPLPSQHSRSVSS

Rattus norvegicus = species on record: Rattus norvegicus; details: Compound concentration 10.0 uM
[8] = biological target: Sodium-dependent noradrenaline transporter (Homo sapiens) (UniProt P23975); details: Compound concentration 10.0 uM
Sodium-dependent noradrenaline transporter (Homo sapiens), sequence (P23975 whole entry): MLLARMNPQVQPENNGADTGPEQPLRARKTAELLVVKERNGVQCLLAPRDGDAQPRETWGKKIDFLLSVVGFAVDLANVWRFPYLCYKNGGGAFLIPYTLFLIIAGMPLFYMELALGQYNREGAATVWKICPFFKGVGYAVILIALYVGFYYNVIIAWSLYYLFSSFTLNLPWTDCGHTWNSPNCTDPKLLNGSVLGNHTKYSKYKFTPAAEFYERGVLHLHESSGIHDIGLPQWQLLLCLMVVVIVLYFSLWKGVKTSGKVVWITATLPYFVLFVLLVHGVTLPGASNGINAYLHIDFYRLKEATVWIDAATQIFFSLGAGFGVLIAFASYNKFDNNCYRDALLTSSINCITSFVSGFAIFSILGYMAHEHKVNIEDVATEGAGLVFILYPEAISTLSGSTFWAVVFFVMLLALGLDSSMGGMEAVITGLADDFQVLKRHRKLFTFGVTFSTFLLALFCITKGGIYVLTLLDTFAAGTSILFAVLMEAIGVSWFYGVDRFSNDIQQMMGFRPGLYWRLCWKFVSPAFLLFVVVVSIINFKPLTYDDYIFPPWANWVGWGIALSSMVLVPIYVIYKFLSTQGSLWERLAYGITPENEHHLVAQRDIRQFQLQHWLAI

[9] = biological target: Histamine H3 receptor (Homo sapiens) (UniProt Q9Y5N1); details: Compound concentration 10.0 uM
[10] = biological target: Histamine H2 receptor (Homo sapiens) (UniProt P25021); details: Compound concentration 10.0 uM
[11] = biological target: Sigma intracellular receptor 2 (Homo sapiens) (UniProt Q5BJF2); details: Compound concentration 10.0 uM
Sigma intracellular receptor 2 (Homo sapiens), sequence (Q5BJF2 whole entry): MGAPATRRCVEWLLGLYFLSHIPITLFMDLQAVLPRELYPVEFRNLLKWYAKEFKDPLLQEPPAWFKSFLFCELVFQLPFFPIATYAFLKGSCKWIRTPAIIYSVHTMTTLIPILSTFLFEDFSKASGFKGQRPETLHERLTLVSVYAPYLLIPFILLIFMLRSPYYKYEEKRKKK

[12] = biological target: 5-hydroxytryptamine receptor 2B (Homo sapiens) (UniProt P41595); details: Compound concentration 10.0 uM
[13] = biological target: 5-hydroxytryptamine receptor 1D (Homo sapiens) (UniProt P28221); details: Compound concentration 10.0 uM
[14] = biological target: T1, GABA-A receptor; anion channel (Rattus norvegicus) (UniProt O09028+P15431+P18506+P18508+P19969+P20236+P23574+P23576+P28471+P28473+P30191+P62813+P63079+P63138+Q91ZM7+Q9ES14); details: Compound concentration 10.0 uM
[15] = biological target: Alpha-1B adrenergic receptor (Homo sapiens) (UniProt P35368); details: Compound concentration 10.0 uM
Alpha-1B adrenergic receptor (Homo sapiens), sequence (P35368 whole entry): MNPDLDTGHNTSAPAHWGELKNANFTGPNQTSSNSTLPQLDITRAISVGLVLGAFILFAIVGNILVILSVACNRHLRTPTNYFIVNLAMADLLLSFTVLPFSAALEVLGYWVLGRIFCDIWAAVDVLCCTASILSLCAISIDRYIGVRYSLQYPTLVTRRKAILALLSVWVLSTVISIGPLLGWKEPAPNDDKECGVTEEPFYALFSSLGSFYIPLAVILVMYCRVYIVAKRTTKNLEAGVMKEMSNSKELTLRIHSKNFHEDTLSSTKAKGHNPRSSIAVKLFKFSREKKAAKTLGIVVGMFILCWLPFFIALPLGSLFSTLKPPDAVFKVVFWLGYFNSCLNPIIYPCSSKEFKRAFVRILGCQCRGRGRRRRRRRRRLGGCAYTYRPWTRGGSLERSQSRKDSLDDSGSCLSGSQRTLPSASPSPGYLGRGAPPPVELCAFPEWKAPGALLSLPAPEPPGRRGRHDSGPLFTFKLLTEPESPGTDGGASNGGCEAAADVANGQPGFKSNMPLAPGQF

[16] = biological target: 5-hydroxytryptamine receptor 1A (Homo sapiens, UniProt P08908); assay: GPCRScan assay: inhibition of 5-HT1A; parameters: radioligand conc. used [nm] 0.5 – 1.0, parental cells stable CHO
5-hydroxytryptamine receptor 1A, sequence (P08908 whole entry): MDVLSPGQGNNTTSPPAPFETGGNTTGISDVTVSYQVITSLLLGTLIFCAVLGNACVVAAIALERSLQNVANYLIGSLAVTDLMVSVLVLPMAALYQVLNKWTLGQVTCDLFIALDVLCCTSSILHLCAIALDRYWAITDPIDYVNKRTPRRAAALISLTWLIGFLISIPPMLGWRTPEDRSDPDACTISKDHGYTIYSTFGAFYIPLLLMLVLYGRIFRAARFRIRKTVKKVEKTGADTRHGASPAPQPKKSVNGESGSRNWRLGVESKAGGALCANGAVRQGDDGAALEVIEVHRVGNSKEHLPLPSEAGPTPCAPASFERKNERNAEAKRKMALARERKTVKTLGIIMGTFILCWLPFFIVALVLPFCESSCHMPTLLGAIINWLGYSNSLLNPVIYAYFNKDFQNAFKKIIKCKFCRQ

[17] = biological target: 5-hydroxytryptamine receptor 1B (Homo sapiens) (UniProt P28222); details: Compound concentration 10.0 uM
[18] = biological target: D(1B) dopamine receptor (Homo sapiens) (UniProt P21918); details: Compound concentration 10.0 uM
[19] = biological target: T1, GABA-A receptor; anion channel (Rattus norvegicus); details: Compound concentration 10.0 uM; remark: listed apart in the source
[20] = biological target: 5-hydroxytryptamine receptor 2C (Homo sapiens) (UniProt P28335); details: Compound concentration 10.0 uM
[21] = biological target: Alpha-1A adrenergic receptor (Homo sapiens) (UniProt P35348); details: Compound concentration 10.0 uM
[22] = biological target: Alpha-2C adrenergic receptor (Homo sapiens) (UniProt P18825); details: Compound concentration 10.0 uM
[23] = biological target: 5-hydroxytryptamine receptor 1E (Homo sapiens) (UniProt P28566); details: Compound concentration 10.0 uM
5-hydroxytryptamine receptor 1E (Homo sapiens), sequence (P28566 whole entry): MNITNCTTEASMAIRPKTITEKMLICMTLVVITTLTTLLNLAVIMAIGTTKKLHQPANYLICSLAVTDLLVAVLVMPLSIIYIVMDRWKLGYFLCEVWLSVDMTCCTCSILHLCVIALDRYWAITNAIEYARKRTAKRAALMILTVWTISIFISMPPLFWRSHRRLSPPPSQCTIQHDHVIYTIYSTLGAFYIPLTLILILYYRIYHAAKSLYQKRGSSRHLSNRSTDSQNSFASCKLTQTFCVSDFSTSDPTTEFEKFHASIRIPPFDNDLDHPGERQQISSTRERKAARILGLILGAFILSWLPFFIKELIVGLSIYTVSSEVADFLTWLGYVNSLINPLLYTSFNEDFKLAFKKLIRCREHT

[24] = biological target: 5-hydroxytryptamine receptor 2A (Homo sapiens) (UniProt P28223); details: Compound concentration 10.0 uM
[25] = biological target: D(3) dopamine receptor (Homo sapiens) (UniProt P35462); details: Compound concentration 10.0 uM
[26] = biological target: 5-hydroxytryptamine receptor 3A (Homo sapiens) (UniProt P46098); details: Compound concentration 10.0 uM
5-hydroxytryptamine receptor 3A (Homo sapiens), sequence (P46098 whole entry): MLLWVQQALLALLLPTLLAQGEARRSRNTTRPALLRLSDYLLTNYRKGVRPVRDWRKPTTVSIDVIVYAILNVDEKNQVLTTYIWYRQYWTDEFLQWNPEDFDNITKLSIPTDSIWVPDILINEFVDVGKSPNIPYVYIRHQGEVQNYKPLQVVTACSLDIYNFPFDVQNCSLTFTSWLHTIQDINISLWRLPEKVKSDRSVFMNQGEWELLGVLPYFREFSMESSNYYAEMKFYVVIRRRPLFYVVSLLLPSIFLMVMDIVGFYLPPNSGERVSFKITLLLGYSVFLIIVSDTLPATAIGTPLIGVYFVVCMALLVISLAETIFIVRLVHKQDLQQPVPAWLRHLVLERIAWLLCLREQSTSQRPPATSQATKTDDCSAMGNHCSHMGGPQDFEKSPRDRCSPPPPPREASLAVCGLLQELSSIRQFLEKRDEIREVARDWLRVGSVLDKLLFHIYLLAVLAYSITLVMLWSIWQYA

[27] = biological target: 5-hydroxytryptamine receptor 5A (Homo sapiens) (UniProt P47898); details: Compound concentration 10.0 uM
[28] = biological target: 5-hydroxytryptamine receptor 1A (Homo sapiens) (UniProt P08908); details: Compound concentration 10.0 uM
5-hydroxytryptamine receptor 1A (Homo sapiens), sequence (P08908 whole entry): as the sequence (P08908 whole entry) above

[29] = biological target: Alpha-2A adrenergic receptor (Homo sapiens) (UniProt P08913); details: Compound concentration 10.0 uM
[30] = biological target: Beta-3 adrenergic receptor (Homo sapiens) (UniProt P13945); details: Compound concentration 10.0 uM
[31] = biological target: Muscarinic acetylcholine receptor M5 (Homo sapiens) (UniProt P08912); details: Compound concentration 10.0 uM
Muscarinic acetylcholine receptor M5 (Homo sapiens), sequence (P08912 whole entry): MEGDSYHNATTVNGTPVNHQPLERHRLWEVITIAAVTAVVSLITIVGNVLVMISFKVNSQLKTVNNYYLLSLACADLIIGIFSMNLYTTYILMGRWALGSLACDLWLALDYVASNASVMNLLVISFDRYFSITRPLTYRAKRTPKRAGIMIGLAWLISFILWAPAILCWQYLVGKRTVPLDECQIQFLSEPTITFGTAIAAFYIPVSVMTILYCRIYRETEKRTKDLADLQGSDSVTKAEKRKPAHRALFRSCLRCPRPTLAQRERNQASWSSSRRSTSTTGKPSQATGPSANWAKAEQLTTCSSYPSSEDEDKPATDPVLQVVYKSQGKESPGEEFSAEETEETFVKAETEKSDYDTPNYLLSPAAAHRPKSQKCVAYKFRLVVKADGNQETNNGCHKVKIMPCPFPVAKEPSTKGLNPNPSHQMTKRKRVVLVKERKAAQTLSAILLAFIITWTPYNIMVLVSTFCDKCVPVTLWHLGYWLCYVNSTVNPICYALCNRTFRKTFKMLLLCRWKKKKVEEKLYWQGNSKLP

[32] = biological target: Kappa-type opioid receptor (Homo sapiens) (UniProt P41145); details: Compound concentration 10.0 uM
[33] = biological target: Histamine H1 receptor (Homo sapiens) (UniProt P35367); details: Compound concentration 10.0 uM
Histamine H1 receptor (Homo sapiens), sequence (P35367 whole entry): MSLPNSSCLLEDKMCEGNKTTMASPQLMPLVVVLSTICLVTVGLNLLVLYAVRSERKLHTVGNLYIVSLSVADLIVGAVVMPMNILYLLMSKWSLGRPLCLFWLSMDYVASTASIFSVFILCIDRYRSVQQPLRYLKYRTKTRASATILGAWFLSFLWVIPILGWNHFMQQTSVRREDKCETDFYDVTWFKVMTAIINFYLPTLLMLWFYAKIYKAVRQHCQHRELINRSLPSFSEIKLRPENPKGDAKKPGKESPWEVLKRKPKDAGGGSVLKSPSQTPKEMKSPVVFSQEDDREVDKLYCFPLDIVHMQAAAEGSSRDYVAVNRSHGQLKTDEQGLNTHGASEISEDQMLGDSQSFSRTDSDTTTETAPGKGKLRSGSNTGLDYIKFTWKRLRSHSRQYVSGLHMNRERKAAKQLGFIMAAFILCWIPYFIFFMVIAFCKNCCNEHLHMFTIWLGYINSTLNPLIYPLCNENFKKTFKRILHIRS

[34] = biological target: Muscarinic acetylcholine receptor M2 (Homo sapiens) (UniProt P08172); details: Compound concentration 10.0 uM
[35] = biological target: Mu-type opioid receptor (Homo sapiens) (UniProt P35372); details: Compound concentration 10.0 uM
[36] = biological target: Sigma non-opioid intracellular receptor 1 (Homo sapiens) (UniProt Q99720); details: Compound concentration 10.0 uM
Sigma non-opioid intracellular receptor 1 (Homo sapiens), sequence (Q99720 whole entry): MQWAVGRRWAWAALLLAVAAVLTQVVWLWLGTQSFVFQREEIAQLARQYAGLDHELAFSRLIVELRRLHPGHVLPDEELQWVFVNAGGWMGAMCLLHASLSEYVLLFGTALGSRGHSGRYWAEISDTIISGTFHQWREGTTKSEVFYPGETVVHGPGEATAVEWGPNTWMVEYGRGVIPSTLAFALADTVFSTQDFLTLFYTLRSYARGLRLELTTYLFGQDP

[37] = biological target: Sodium-dependent dopamine transporter (Homo sapiens) (UniProt Q01959); details: Compound concentration 10.0 uM
[38] = biological target: Delta-type opioid receptor (Homo sapiens) (UniProt P41143); details: Compound concentration 10.0 uM
[39] = biological target: 5-hydroxytryptamine receptor 7 (Homo sapiens) (UniProt P34969); details: Compound concentration 10.0 uM
[40] = biological target: D(1A) dopamine receptor (Homo sapiens) (UniProt P21728); details: Compound concentration 10.0 uM
[41] = biological target: Alpha-1D adrenergic receptor (Homo sapiens) (UniProt P25100); details: Compound concentration 10.0 uM
Alpha-1D adrenergic receptor (Homo sapiens), sequence (P25100 whole entry): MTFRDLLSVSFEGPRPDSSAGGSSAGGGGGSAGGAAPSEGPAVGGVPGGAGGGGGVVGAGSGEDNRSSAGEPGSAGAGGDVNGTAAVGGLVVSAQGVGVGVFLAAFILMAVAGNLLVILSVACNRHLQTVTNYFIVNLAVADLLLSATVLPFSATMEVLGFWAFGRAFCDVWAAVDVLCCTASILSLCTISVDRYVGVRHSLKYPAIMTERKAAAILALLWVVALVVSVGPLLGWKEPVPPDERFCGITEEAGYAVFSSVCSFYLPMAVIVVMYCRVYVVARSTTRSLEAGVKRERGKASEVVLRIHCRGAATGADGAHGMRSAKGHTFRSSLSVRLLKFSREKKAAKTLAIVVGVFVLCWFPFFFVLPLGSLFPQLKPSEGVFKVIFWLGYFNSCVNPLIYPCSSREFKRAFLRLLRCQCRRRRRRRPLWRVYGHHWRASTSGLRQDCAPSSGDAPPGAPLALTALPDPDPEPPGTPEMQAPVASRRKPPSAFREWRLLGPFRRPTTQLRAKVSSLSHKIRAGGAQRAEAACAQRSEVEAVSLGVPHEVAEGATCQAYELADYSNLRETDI

[42] = biological target: D(2) dopamine receptor (Homo sapiens) (UniProt P14416); details: Compound concentration 10.0 uM
[43] = biological target: Oxidized purine nucleoside triphosphate hydrolase (Homo sapiens, UniProt P36639); assay: PPiLight Biochemical Assay
D(4) dopamine receptor = D(4) dopamine receptor (Homo sapiens, UniProt P21917); assay: GPCRScan assay: inhibition of D4; parameters: radioligand conc. used [nm] 0.6 – 1.7, parental cells Stable HEK
[44] = biological target: Muscarinic acetylcholine receptor M3 (Homo sapiens) (UniProt P20309); details: Compound concentration 10.0 uM
[45] = biological target: Muscarinic acetylcholine receptor M4 (Homo sapiens) (UniProt P08173); details: Compound concentration 10.0 uM

## CCNC(=O)c1cc2c(N3CCOC[C@@H]3C)ccnc2[nH]1
[1]
  inhibition: 34.4%
[2]
  inhibition: -6.09%
[3]
  inhibition: -8.52%
[4]
  inhibition: 21.7%
[5]
  Ki: 1530 nM
[6]
  inhibition: -3.84%
[7]
  inhibition: 0.0286%
Rattus norvegicus
  inhibition: 30.1%
[8]
  inhibition: 40.2%
[9]
  inhibition: 40.5%
[10]
  inhibition: 1.31%
[11]
  inhibition: 34.6%
[12]
  inhibition: 47.1%
[13]
  inhibition: -7.55%
[14]
  inhibition: 28.2%
[15]
  inhibition: -2.4%
[16]
  Ki: 10000 nM
[17]
  inhibition: -1.66%
[18]
  inhibition: 34.3%
[19]
  inhibition: 57.3%
[20]
  inhibition: -4.02%
[21]
  inhibition: 1.88%
[22]
  inhibition: 3.16%
[23]
  inhibition: 10.6%
[24]
  inhibition: -7.89%
[25]
  inhibition: -7.82%
[26]
  inhibition: -1.37%
[27]
  inhibition: -8.05%
[28]
  inhibition: 69.8%
[29]
  inhibition: 18.1%
[30]
  inhibition: 14.3%
[31]
  inhibition: -4.95%
[32]
  inhibition: 13.1%
[33]
  inhibition: 4.94%
[34]
  inhibition: -1.26%
[35]
  inhibition: 24.8%
[36]
  inhibition: 24.3%
[37]
  inhibition: 25.5%
[38]
  inhibition: -0.04%
[39]
  inhibition: -4.45%
[40]
  inhibition: 1.92%
[41]
  inhibition: 8.58%
[42]
  inhibition: 12.3%

## CCNC(=O)c1cc2c(N3CCOC[C@@H]3C)ccnc2n1C
[1]
  inhibition: -2.44%
[2]
  inhibition: 27.3%
[3]
  inhibition: 31.9%
[4]
  inhibition: 11.9%
[5]
  Ki: 224 nM
  pKi: 6.72
[43]
  IC50: > 20000 nM (not active)
[6]
  inhibition: 77.6%
D(4) dopamine receptor; read-out: Ki
  Ki: 736 nM
D(4) dopamine receptor; read-out: pKi (converted)
  Ki: 708 nM
[7]
  inhibition: 5.51%
Rattus norvegicus
  inhibition: 17.2%
[8]
  inhibition: 5.35%
[9]
  inhibition: -6.16%
[10]
  inhibition: -3.91%
[11]
  inhibition: 30.4%
[12]
  inhibition: 2.79%
[13]
  inhibition: -0.31%
[14]
  inhibition: -1.39%
[15]
  inhibition: 5.71%
[17]
  inhibition: -8.46%
[19]
  inhibition: 84.2%
[20]
  inhibition: 46.2%
[21]
  inhibition: 3.94%
[22]
  inhibition: -1.28%
[23]
  inhibition: 9.36%
[24]
  inhibition: -1.68%
[44]
  inhibition: 38%
[25]
  inhibition: 12.1%
[26]
  inhibition: 18.6%
[45]
  inhibition: 5.75%
[28]
  inhibition: -1.88%
[29]
  inhibition: 16.9%
[30]
  inhibition: -9.19%
[31]
  inhibition: -0.9%
[32]
  inhibition: 14.6%
[33]
  inhibition: 26%
[34]
  inhibition: 7.19%
[35]
  inhibition: 0.08%
[36]
  inhibition: 24.5%
[38]
  inhibition: 2.73%
[39]
  inhibition: -1.21%
[40]
  inhibition: 14.2%
[41]
  inhibition: -8.1%
[42]
  inhibition: -1.89%
